Patent US11395847B2, “Acylated GLP-1/GLP-2 dual agonists” (Zealand Pharma A/S, priority 2016, dated 2022)
Where two headings read alike, the source gives them in different places. Blank lines part the entries; values can stand above or below the compound they belong to. *1 amine or outer side, *2 acyl side, *3 side chain or, on linkers, in order; H or OH if unused. Where a SMILES comes first, the peptide text is derived from it. Side-chain parts run from the residue outwards. [ ]: non-standard residue; d: D form. The star is where a group is joined. C20 diacid = O=C(O)CCCCCCCCCCCCCCCCCCC(=O)*; γGlu = O=C(O)[C@H](CCC(=O)[*:2])N[*:1]; AEEA = NCCOCCOCC(=O)O; Aib = CC(C)(N)C(=O)O

How the values were obtained:
[1] = biological target: T1, human GLP-2 receptor (Homo sapiens, UniProt O95838, D470N); test: GLP-2 receptor potency assay (cAMP ALPHASCREEN, HEK293 cells stably expressing GLP-2 R); type: cell-based; conditions: cAMP response, HEK293 cells expressing human GLP-2 R; read-out: EC50 GLP-2
T1 construct: expressed in transfected cells
T1 sequence (O95838 1-553 D470N): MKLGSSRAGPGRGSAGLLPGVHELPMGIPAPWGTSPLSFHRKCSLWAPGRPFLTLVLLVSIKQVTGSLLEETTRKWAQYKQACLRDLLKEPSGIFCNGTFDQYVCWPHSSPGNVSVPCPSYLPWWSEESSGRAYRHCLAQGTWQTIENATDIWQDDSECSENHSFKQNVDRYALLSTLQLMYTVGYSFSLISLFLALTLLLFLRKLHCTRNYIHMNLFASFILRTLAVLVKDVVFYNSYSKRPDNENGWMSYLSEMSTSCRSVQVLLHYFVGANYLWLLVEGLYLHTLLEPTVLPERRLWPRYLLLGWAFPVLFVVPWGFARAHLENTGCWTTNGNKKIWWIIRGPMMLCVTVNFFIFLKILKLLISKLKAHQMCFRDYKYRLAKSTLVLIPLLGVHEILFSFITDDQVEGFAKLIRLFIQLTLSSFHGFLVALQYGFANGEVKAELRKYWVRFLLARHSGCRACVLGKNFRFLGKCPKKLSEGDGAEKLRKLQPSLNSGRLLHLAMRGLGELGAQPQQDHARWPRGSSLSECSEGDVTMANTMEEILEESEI
From the text: One useful in vitro assay for measuring GLP-1 and GLP-2 receptor activity is quantitation of cAMP, i.e. 3′-5′-cyclic adenosine monophosphate, which is a second messenger essential in many biological processes, and one of the most ubiquitous mechanisms for regulating cellular functions.
For subcloning into a mammalian expression vector, primers for subcloning were obtained from DNA-Technology, Risskov, Denmark. The 5′ and 3′ primers used for the PCR reaction include terminal restriction sites for cloning and the context of the 5′ primer is modified to a Kozak consensus without changing the sequence of the product encoded by the ORF. […] The generated PCR product was purified using GFX PCR and Gel band purification kit, digested with restriction enzymes and cloned into the mammalian expression vector using Rapid DNA Ligation Kit. Ligation reaction was transformed to XL10 Gold Ultracompetent cells and colonies were picked for DNA production using ENDOFREE® Plasmid maxi kit. Subsequent sequence analysis was conducted by MWG Eurofins, Germany.
HEK293 cells were transfected using the LIPOFECTAMINE® PLUS transfection method. The day before transfection, HEK293 cells were seeded in two T75 flasks at a density of 2×10^6 cells/T75 flask in cell culturing medium without antibiotics. On the day of transfection, cells were washed with 1× DPBS and medium was replaced with OPTI-MEM© to a volume of 5 mL/T75 flask before addition of LIPOFECTAMINE®-plasmid complexes were added gently and drop wise to the cells in T75 flasks and replaced with growth medium after 3 hours and again to growth medium supplemented with 500 μg/mL G418 after 24 hours. Following 4 weeks in G418 selection, clones were picked and tested in a functional GLP-2 receptor potency assay as described below.
The cAMP ALPHASCREEN® assay from Perkin Elmer was used to quantitate the cAMP response to activation of the GLP1 and GLP2 receptor, respectively. […] Data from test compounds eliciting an increase in the intracellular level of cAMP were normalized relative to the positive and negative control (vehicle) to calculate the EC50 and maximal response from the concentration response curve.

[2] = Solubility assessment (turbidity absorbance at 325 nm); type: physicochemical
Protocol: A stock solution of the test peptide (2 mg/ml; determined from the weighed amount of peptide) in demineralized water adjusted to pH 2.5 with HCl was prepared, and aliquots were diluted 1:1 in 100 mM acetate buffer (pH 4.0 and pH 5.0), 100 mM histidine buffer (pH 6.0 and pH 7.0) and 100 mM phosphate buffer (pH 6.0, pH 7.0 and pH 7.5), respectively, and loaded in a standard flat-bottom, non-sterile 96-well UV Microplate. The absorbance of samples (single samples, n=1) at 280 and 325 nm was measured in an absorbance-based plate reader, which was preheated to ambient temperature (typically 25° C.).

[3] = Chemical stability (RP-HPLC normalized purity after incubation at 40° C.); type: physicochemical; conditions: 14-day incubation, 0.2 mg/ml, normalized purity (area-%)
In short: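 Peptide at 0.2 mg/ml final in water adjusted to pH 6, 7, 7.5 or 9, incubated at 40° C for 14 days. Purity measured as main-peak area-% by C18 RP-HPLC (acetonitrile/TFA/water gradient, UV 220 nm) and normalized to T=0 set at 100 for each pH.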

EC50 [1]: 330 pM
SMILES: CC[C@H](C)[C@H](NC(=O)[C@H](Cc1ccccc1)NC(=O)[C@H](CC(=O)O)NC(=O)[C@H](CCCNC(=N)N)NC(=O)[C@H](C)NC(=O)[C@H](C)NC(=O)[C@H](CCC(=O)O)NC(=O)[C@H](CCCCNC(=O)CC[C@H](NC(=O)CCCCCCCCCCCCCCCCC(=O)O)C(=O)O)NC(=O)[C@H](CC(=O)O)NC(=O)[C@H](CC(C)C)NC(=O)[C@@H](NC(=O)[C@@H](NC(=O)[C@H](C)NC(=O)[C@H](CC(C)C)NC(=O)[C@H](CCC(=O)O)NC(=O)[C@H](CO)NC(=O)[C@@H](NC(=O)[C@H](Cc1ccccc1)NC(=O)[C@@H](NC(=O)CNC(=O)[C@H](CCC(=O)O)NC(=O)C(C)(C)NC(=O)[C@@H](N)Cc1c[nH]cn1)[C@@H](C)O)[C@@H](C)O)[C@@H](C)O)[C@@H](C)CC)C(=O)N[C@@H](C)C(=O)N[C@@H](Cc1c[nH]c2ccccc12)C(=O)N[C@@H](CC(C)C)C(=O)N[C@H](C(=O)N[C@@H](CCC(=O)O)C(=O)N[C@@H](Cc1c[nH]cn1)C(=O)N[C@@H](CCCCN)C(=O)N[C@H](C(=O)N[C@H](C(=O)N[C@@H](CC(=O)O)C(=O)O)[C@@H](C)O)[C@@H](C)CC)[C@@H](C)CC [Compound 3] (HELM PEPTIDE1{H.[Aib].E.G.T.F.T.S.E.L.A.T.I.L.D.K.E.A.A.R.D.F.I.A.W.L.I.E.H.K.I.T.D}|PEPTIDE2{[O=C(O)CCCCCCCCCCCCCCCCC(=O)[*:2]].[gGlu]}$PEPTIDE1,PEPTIDE2,16:R3-2:R2$$$V2.0)

SMILES: CC[C@H](C)[C@H](NC(=O)[C@H](Cc1ccccc1)NC(=O)[C@H](CC(=O)O)NC(=O)[C@H](CCCNC(=N)N)NC(=O)[C@H](C)NC(=O)[C@H](C)NC(=O)[C@H](CCCCN)NC(=O)[C@H](CCCCNC(=O)COCCOCCNC(=O)COCCOCCNC(=O)CC[C@H](NC(=O)CCCCCCCCCCCCCCCCCCC(=O)O)C(=O)O)NC(=O)[C@H](CC(=O)O)NC(=O)[C@H](CC(C)C)NC(=O)[C@@H](NC(=O)[C@@H](NC(=O)[C@H](C)NC(=O)[C@H](CC(C)C)NC(=O)[C@H](CCC(=O)O)NC(=O)[C@H](CO)NC(=O)[C@@H](NC(=O)[C@H](Cc1ccccc1)NC(=O)[C@H](CO)NC(=O)CNC(=O)[C@H](CCC(=O)O)NC(=O)C(C)(C)NC(=O)[C@@H](N)Cc1c[nH]cn1)[C@@H](C)O)[C@@H](C)O)[C@@H](C)CC)C(=O)N[C@@H](C)C(=O)N[C@@H](Cc1c[nH]c2ccccc12)C(=O)N[C@@H](CC(C)C)C(=O)N[C@H](C(=O)N[C@@H](CCC(=O)O)C(=O)N[C@@H](Cc1c[nH]cn1)C(=O)N[C@@H](CCCCN)C(=O)N[C@H](C(=O)N[C@H](C(=O)N[C@@H](CC(=O)O)C(=O)O)[C@@H](C)O)[C@@H](C)CC)[C@@H](C)CC [Compound 43] (H-H[Aib]EGSFTSELATILDK([AEEA-AEEA-γGlu-C20 diacid])KAARDFIAWLIEHKITD-OH)
EC50 [1]: 150 pM

EC50 [1]: 110 pM
SMILES: CC[C@H](C)[C@H](NC(=O)[C@H](Cc1ccccc1)NC(=O)[C@H](CC(=O)O)NC(=O)[C@H](CCCNC(=N)N)NC(=O)[C@H](C)NC(=O)[C@H](C)NC(=O)[C@H](CC(C)C)NC(=O)[C@H](CCCCNC(=O)CC[C@H](NC(=O)CCCCCCCCCCCCCCCCC(=O)O)C(=O)O)NC(=O)[C@H](CC(=O)O)NC(=O)[C@H](CC(C)C)NC(=O)[C@@H](NC(=O)[C@@H](NC(=O)[C@H](C)NC(=O)[C@H](CC(C)C)NC(=O)[C@H](CCC(=O)O)NC(=O)[C@H](CO)NC(=O)[C@@H](NC(=O)[C@H](Cc1ccccc1)NC(=O)[C@@H](NC(=O)CNC(=O)[C@H](CCC(=O)O)NC(=O)C(C)(C)NC(=O)[C@@H](N)Cc1c[nH]cn1)[C@@H](C)O)[C@@H](C)O)[C@@H](C)O)[C@@H](C)CC)C(=O)N[C@@H](C)C(=O)N[C@@H](Cc1c[nH]c2ccccc12)C(=O)N[C@@H](CC(C)C)C(=O)N[C@H](C(=O)N[C@@H](CCC(=O)O)C(=O)N[C@@H](Cc1c[nH]cn1)C(=O)N[C@@H](CCCCN)C(=O)N[C@H](C(=O)N[C@H](C(=O)N[C@@H](CC(=O)O)C(=O)O)[C@@H](C)O)[C@@H](C)CC)[C@@H](C)CC [Compound 12] (HELM PEPTIDE1{H.[Aib].E.G.T.F.T.S.E.L.A.T.I.L.D.K.L.A.A.R.D.F.I.A.W.L.I.E.H.K.I.T.D}|PEPTIDE2{[O=C(O)CCCCCCCCCCCCCCCCC(=O)[*:2]].[gGlu]}$PEPTIDE1,PEPTIDE2,16:R3-2:R2$$$V2.0)

solubility ([2]; 100 mM acetate buffer pH 4.0, ambient temperature, read-out: Solubility Acetate buffer pH 4): < 1000 µg/mL
solubility ([2]; 100 mM acetate buffer pH 5.0, ambient temperature, read-out: Solubility Acetate buffer pH 5): < 1000 µg/mL
solubility ([2]; 100 mM histidine buffer pH 6.0, ambient temperature, read-out: Solubility Histidine buffer pH 6): ≥ 1000 µg/mL
solubility ([2]; 100 mM histidine buffer pH 7.0, ambient temperature, read-out: Solubility Histidine buffer pH 7): ≥ 1000 µg/mL
solubility ([2]; 100 mM phosphate buffer pH 6.0, ambient temperature, read-out: Solubility Phosphate buffer pH 6): ≥ 1000 µg/mL
solubility ([2]; 100 mM phosphate buffer pH 7.0, ambient temperature, read-out: Solubility Phosphate buffer pH 7): ≥ 1000 µg/mL
solubility ([2]; 100 mM phosphate buffer pH 7.5, ambient temperature, read-out: Solubility Phosphate buffer pH 7.5): ≥ 1000 µg/mL
pH 6 normalized stability ([3]; pH 6, 40° C.): A (>90% normalised stability)
pH 7 normalized stability ([3]; pH 7, 40° C.): A (>90% normalised stability)
SMILES: CC[C@H](C)[C@H](NC(=O)[C@H](Cc1ccccc1)NC(=O)[C@H](CC(=O)O)NC(=O)[C@H](CCCNC(=N)N)NC(=O)[C@H](C)NC(=O)[C@H](C)NC(=O)[C@H](CCC(N)=O)NC(=O)[C@H](CCCCNC(=O)CC[C@H](NC(=O)CCCCCCCCCCCCCCCCC(=O)O)C(=O)O)NC(=O)[C@H](CC(=O)O)NC(=O)[C@H](CC(C)C)NC(=O)[C@@H](NC(=O)[C@@H](NC(=O)[C@H](C)NC(=O)[C@H](CC(C)C)NC(=O)[C@H](CCC(=O)O)NC(=O)[C@H](CO)NC(=O)[C@@H](NC(=O)[C@H](Cc1ccccc1)NC(=O)[C@@H](NC(=O)CNC(=O)[C@H](CCC(=O)O)NC(=O)C(C)(C)NC(=O)[C@@H](N)Cc1c[nH]cn1)[C@@H](C)O)[C@@H](C)O)[C@@H](C)O)[C@@H](C)CC)C(=O)N[C@@H](C)C(=O)N[C@@H](Cc1c[nH]c2ccccc12)C(=O)N[C@@H](CC(C)C)C(=O)N[C@H](C(=O)N[C@@H](CCC(N)=O)C(=O)N[C@@H](Cc1c[nH]cn1)C(=O)N[C@@H](CCCCN)C(=O)N[C@H](C(=O)N[C@H](C(=O)N[C@@H](CC(=O)O)C(=O)O)[C@@H](C)O)[C@@H](C)CC)[C@@H](C)CC [Compound 19] (HELM PEPTIDE1{H.[Aib].E.G.T.F.T.S.E.L.A.T.I.L.D.K.Q.A.A.R.D.F.I.A.W.L.I.Q.H.K.I.T.D}|PEPTIDE2{[O=C(O)CCCCCCCCCCCCCCCCC(=O)[*:2]].[gGlu]}$PEPTIDE1,PEPTIDE2,16:R3-2:R2$$$V2.0)
